test system: Rattus norvegicus; assay: In vivo inhibition of rat FAAH at 0.3 mg/kg, ip after 16 hrs; type: functional; conditions: route intraperitoneal

For `NC(=O)c1cccc(-c2cccc(OC(=O)NC3CCCCC3)c2)c1` [URB-597], the inhibition in vivo at 0.3 mg/kg was 70%.

biological target: T1, Fatty-acid amide hydrolase 1 (Homo sapiens, UniProt O00519); assay: Reversible inhibition of human FAAH; conditions: not given
T1 sequence (O00519 whole entry): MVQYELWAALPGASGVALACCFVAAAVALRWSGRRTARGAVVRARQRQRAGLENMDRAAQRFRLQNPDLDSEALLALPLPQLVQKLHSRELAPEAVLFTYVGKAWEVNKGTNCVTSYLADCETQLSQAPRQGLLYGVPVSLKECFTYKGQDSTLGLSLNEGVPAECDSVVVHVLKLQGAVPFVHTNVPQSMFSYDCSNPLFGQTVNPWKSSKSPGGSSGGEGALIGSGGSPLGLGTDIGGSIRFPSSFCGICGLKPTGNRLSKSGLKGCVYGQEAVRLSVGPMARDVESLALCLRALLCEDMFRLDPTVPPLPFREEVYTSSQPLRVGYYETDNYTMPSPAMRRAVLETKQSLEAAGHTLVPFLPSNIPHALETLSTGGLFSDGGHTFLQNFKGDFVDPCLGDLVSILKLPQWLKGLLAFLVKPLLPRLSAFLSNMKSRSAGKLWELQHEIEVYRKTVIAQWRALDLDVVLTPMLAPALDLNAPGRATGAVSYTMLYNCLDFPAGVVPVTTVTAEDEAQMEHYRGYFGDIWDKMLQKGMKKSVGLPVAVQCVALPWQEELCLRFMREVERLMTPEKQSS

Going from `CCn1c(=O)n(C2CCCN(c3nccc(-c4cc5ccccc5o4)n3)C2)c2ccccc21` (configuration not stated) to `CCn1ccc2cc(-c3ccc4oc(N5Cc6ccccc6C5)nc4c3)ccc21`, the IC50 falls from 10 nM to 1.3 nM (7.7-fold).

`CCN(CC)S(=O)(=O)N1CCc2c(ccnc2Nc2cnc3ccccc3c2)C1` showed an IC50 of under 100 nM.

biological target: T1, Fatty-acid amide hydrolase 1; assay: Inhibition of FAAH; conditions: not given

Compared with `CCCCCCCC/C=C\CCCCCCC(=O)C(=O)OCC`, `CCCCCCCC/C=C\CCCCCCC(=O)C(N)=O` is 11-fold higher in Ki: 1.4 nM for the first, 16 nM for the second. The first binds more tightly here.

`O=C(CCCCCCc1ccccc1)c1ncc(-c2cccnn2)o1` and `O=C(CCCCCCc1ccccc1)c1ncc(-c2cnccn2)o1` are within 1.5-fold of each other in Ki: 5.6 nM for the first, 5.3 nM for the second.

Compared with `CCCCCCCC/C=C\CCCCCCC=O`, `CCCCCCCC/C=C\CCCCCCC(=O)C(F)(F)F` is 20-fold lower in Ki: 40 nM for the first, 2 nM for the second. The second binds more tightly here.

Compared with `CCCCCCC(=O)c1nc2ncccc2o1`, `CCCCCCCC(=O)c1nc2ncccc2o1` is 3-fold lower in Ki: 2.1 nM for the first, 0.69 nM for the second. The second binds more tightly here.

Going from `CCCCCCCCCCCCCCCC(=O)c1nc2ncccc2o1` to `CCCCCCCCCCCCCCCCCC(=O)c1nc2ncccc2o1`, the Ki rises from 1.9 nM to 11 nM (5.8-fold).

Compared with `CCCCCC(=O)c1nc2ncccc2o1`, `CCCCC(=O)c1nc2ncccc2o1` is 3.3-fold higher in Ki: 15 nM for the first, 50 nM for the second. The first binds more tightly here.

First: CCCCCCCCCCCC(=O)c1nc2ncccc2o1
Second: CCCCCCCCCCCCCC(=O)c1nc2ncccc2o1
The Ki of the first is 3-fold lower: 0.57 nM for the first, 1.7 nM for the second. The first binds more tightly here.

`O=C(CCCCCCc1ccccc1)c1ncc(-c2cscn2)o1` and `O=C(CCCCCCc1ccccc1)c1ncc(-c2cocn2)o1` are within 1.5-fold of each other in Ki: 5.8 nM for the first, 4.6 nM for the second.

Going from `O=C(CCCCCCc1ccccc1)c1ncc(-c2ncccn2)o1` to `CCCCCCCCCC(=O)c1nc2ncccc2o1`, the Ki falls from 4.6 nM to 0.75 nM (6.1-fold).

Molecule `CC(=O)c1nc2ncccc2o1` has a Ki of over 100000 nM.

Going from `COc1ccc(N2CCN(C(=O)n3nnc4ccc(N5CCCC5)nc43)CC2)cc1` to `O=C(N1CCN(c2cccc(C(F)(F)F)c2)CC1)n1nnc2ccc(-c3ccc(Cl)cc3)nc21`, the IC50 rises from 1 nM to 2 nM (2-fold).

Going from `Cc1ccc2nc(-c3ccc(NC(=O)C4CCN(S(=O)(=O)c5cccs5)CC4)cc3)sc2c1` to `O=C(N1CCC(Oc2ccc(OCc3cccc(F)c3)cc2)CC1)n1ccnc1`, the IC50 falls from 18 nM to 0.093 nM (190-fold).

In the case of `CN(CCCCCl)C(=O)n1cnc(-c2ccccc2)c1`, the IC50 is reported as 78 nM.

biological target: T2, Fatty-acid amide hydrolase 1 (Rattus norvegicus, UniProt P97612); assay: Inhibition of rat FAAH assessed as conversion [14]C-oleamide to oleic acid; conditions: not given
T2 sequence (P97612 whole entry): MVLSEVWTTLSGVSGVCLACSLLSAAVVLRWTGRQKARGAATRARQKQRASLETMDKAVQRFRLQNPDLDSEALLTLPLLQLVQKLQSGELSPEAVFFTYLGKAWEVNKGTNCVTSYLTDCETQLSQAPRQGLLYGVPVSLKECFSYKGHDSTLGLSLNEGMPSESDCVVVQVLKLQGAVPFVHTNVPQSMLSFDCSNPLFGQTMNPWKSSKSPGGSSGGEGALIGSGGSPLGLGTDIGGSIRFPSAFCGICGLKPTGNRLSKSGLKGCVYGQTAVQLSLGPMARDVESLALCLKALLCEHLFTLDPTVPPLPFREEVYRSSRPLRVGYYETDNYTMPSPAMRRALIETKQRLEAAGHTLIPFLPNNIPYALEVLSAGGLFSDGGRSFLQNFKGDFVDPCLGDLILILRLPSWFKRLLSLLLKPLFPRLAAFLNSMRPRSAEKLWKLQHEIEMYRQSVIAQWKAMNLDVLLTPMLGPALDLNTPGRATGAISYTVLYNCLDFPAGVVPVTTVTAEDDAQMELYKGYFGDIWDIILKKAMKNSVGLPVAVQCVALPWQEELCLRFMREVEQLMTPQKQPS

Compared with `CCCCCCCC/C=C\CCCCCCCC(=O)c1nccn1C`, `CCCCCCCC/C=C\CCCCCCCC(=O)C1=NCCO1` is lower in Ki: over 100000 nM for the first, 4500 nM for the second.

Going from `CCCCCCCC/C=C\CCCCCCCC(=O)c1nc2cccnc2o1` to `CCCCCCCC/C=C\CCCCCCCC(=O)c1nc2cnccc2o1`, the Ki falls from 11 nM to 7.2 nM (1.5-fold). The second binds more tightly here.
